In brackets after ≈: the same amount, converted by molar mass. Like-named read-outs stand apart in the source and are kept apart here.
Experiments:
BTK [1] = target: T1, BTK (Homo sapiens, UniProt Q06187); conditions: Figure 2; ref Kuglstatter et al., 2011; cited from earlier work
T1 construct: purchased Carna Biosciences

[2] = Chemical stability in DMSO or buffer by HPLC; format: physicochemical; conditions: HPLC analysis of in vitro stability after 24 h at room temperature
[3] = Thermodynamic solubility determination assay; format: physicochemical; conditions: Britton-Robinson buffer (pH 6.5); for solubility thermodynamic: 25 °C, aqueous buffer, thermodynamic from solid, average of two measurements, read-out: S, pH 6.5 (thermodynamic solubility)
Method: Prior to mixing with the appropriate medium, the test chemical was accurately weighed into an appropriately sized screw-capped glass vial. The generated slurry was sonicated at room temperature for 20 min and at 50°C for 15 min, and then agitated at room temperature for at least two days before the crystallinity of the remaining solid was examined using a polarized light microscope. If crystallinity was not observed, more time for equilibration was allowed. The slurry was aliquoted into 1.5 mL centrifuge tubes on the day of analysis and centrifuged at 15,000 rpm for 20 min at 25°C. The supernatant’s concentration was determined by UV-vis (YOKE, T-U7S).

BTK [4] = target: T1, BTK; assay: Cell-free kinase enzymology assay (HTRF KinEase); format: biochemical
Method: FIGURE 4 (A) Enzymatic activities of parent 4 and prodrugs 5a-c for BTK. Kinase enzymology assays were carried out in accordance with the protocols described in the HTRF KinEase assays. (B) Time-dependent plasma stability assay.
The kinase (BTK) was acquired from Carna Biosciences. Kinase acitivity assays were carried out based on Cisbio Bioassays’ HTRF® technology. At room temperature, kinase and substrate were combined with compounds in varied concentrations, followed by adding ATP to activate the enzymatic reactions. EDTA solution was added to stop the reactions after 1 h, followed by the addition of streptavidin XL665 conjugates and anti-phosphotyrosine antibodies. The mixtures were incubated for an additional 1 h at room temperature before reading on a plate reader (EnVision®, Perkin Elmer). GraphPad Prism was used to analyze the data.

[5] = design: method as in Li et al., 2014; conditions: FaSSIF (Fasted State Simulated Intestinal Fluid, pH 6.5) medium; ref Li et al., 2014; cited from earlier work
[6] = design: method as in Li et al., 2014; conditions: ref Li et al., 2014; cited from earlier work
BTK^C481S = tested on: BTK^C481S; design: method as in Gui et al., 2019; conditions: Figure 2; ref Gui et al., 2019; cited from earlier work
[7] = Human plasma stability assay; format: in vitro ADME
Method: (§1) The in vitro stability in human plasma for the test compounds was investigated using procaine as the reference compound. The frozen human plasma was quickly thawed at 37°C. The spiking solution was made by combining 10 µL of a 10 mM compound stock solution with 990 µL of DMSO. The plasma and spiking solution were pre-warmed at 37°C for 5 min. Then 7 µL of the pre-warmed spiking solution was added into the 693 µL plasma evenly. The tests were carried out in duplicate in a 37°C shaking water bath. At 0, 5, 15, 30, 60, and 120 min, 100 µL samples were collected and added to a 400 µL solution containing an internal standard (IS). After quenching, the samples were vortexed for 5 min (600 rpm) and then centrifuged at 4,000 rpm for 20 min. LC-MS was used to analyze the clear supernatants. The values are the mean of two separate experiments.
as §1, with “at 37 °C.” for “at 37°C.”, “at 37 ℃” for “at 37°C”, “a 37 °C” for “a 37°C”

[8] = DMSO, read-out: DMSO (% remaining)
[9] = buffer pH 7.4, read-out: Buffer, pH 7.4 (% remaining)

T1 sequence (Q06187 whole entry): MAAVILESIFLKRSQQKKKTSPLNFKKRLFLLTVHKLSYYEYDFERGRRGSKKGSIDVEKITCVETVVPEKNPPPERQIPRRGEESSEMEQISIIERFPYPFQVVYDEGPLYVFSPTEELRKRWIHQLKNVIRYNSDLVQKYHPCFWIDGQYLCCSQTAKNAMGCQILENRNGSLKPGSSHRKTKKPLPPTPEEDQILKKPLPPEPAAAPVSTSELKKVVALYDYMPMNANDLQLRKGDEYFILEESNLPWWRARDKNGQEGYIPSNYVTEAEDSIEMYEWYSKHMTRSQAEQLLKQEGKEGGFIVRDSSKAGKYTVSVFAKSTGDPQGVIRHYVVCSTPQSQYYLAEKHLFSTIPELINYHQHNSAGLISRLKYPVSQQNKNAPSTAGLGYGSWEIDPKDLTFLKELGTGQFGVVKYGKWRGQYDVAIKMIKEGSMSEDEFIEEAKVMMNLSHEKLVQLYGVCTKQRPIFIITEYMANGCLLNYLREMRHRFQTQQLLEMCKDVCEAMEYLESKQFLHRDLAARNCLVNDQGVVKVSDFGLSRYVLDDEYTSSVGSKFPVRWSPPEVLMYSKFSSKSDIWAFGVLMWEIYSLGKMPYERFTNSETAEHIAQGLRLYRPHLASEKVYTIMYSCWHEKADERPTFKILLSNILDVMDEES

| Structure (SMILES) | remaining at 24 h [2, 8] | solubility thermodynamic [3] | IC50 (BTK [4]) | fold lower inhibitory potential for BTK compared to parent 4 (BTK [4]) | remaining at 24 h [2, 9] | also measured |
| --- | --- | --- | --- | --- | --- | --- |
| Cc1ccc(NC(=O)/C=C/c2ccccc2)cc1C(=O)Nc1cnc2[nH]c(-c3ccccc3)nc2c1 [Compound 1] | – | – | – | – | – | IC50 (BTK [1]): 5600 nM |
| CC(=O)Nc1cc(Nc2ncc(NC(=O)c3cc(NC(=O)c4cccc(C(F)(F)F)c4)ccc3C)cn2)ccc1OC(=O)CN(C)C [Compound 5c, 2-Acetamido-4-((5-(2-methyl-5-(3-(trifluoromethyl)benzamido)benzamido)pyrimidin-2-yl)amino)phenyl dimethylglycinate] | 100% | 4.6 µM (≈ 2.99 µg/mL) | 124 nM | 9 fold | – | – |
| C=CC(=O)Nc1cccc(Nc2ncc(NC(=O)c3cc(NC(=O)c4cccc(C(F)(F)F)c4)ccc3C)cn2)c1 [Compound 2, reference compound] | 100% | 2 µM (≈ 1.12 µg/mL) | – | – | – | solubility in FaSSIF [5]: 7.02 µM (≈ 3.93 µg/mL); bioavailability (F%) [6]: 0.9% |
| CC(=O)Nc1cc(Nc2ncc(NC(=O)c3cc(NC(=O)c4cccc(C(F)(F)F)c4)ccc3C)cn2)ccc1OC(=O)CN [Compound 5b, 2-Acetamido-4-((5-(2-methyl-5-(3-(trifluoromethyl)benzamido)benzamido)pyrimidin-2-yl)amino)phenyl glycinate] | 100% | 22 µM (≈ 13.7 µg/mL) | 92 nM | 7 fold | 98% | increase of solubility compared to parent 4 [3]: thrice |
| CC(=O)Nc1cc(Nc2ncc(NC(=O)c3cc(NC(=O)c4cccc(C(F)(F)F)c4)ccc3C)cn2)ccc1O [Compound 4] | 100% | 6.6 µM (≈ 3.73 µg/mL) | 14 nM | – | 100% | – |
| Cc1cc(Nc2ncc3c(n2)N(C)CN(c2cc(NC(=O)c4cccc(C(F)(F)F)c4)ccc2C)C3)n(C)n1 [Compound 3] | – | – | – | – | – | IC50 (BTK^C481S): 11 nM |
| CCN(CC)CCOC(=O)c1ccc(N)cc1 [Procaine, reference compound] | – | – | – | – | – | Analyte Peak Area ([7]; human plasma, 37°C, time 15 min, duplicates): BLOD; Analyte Peak Area ([7]; human plasma, 37°C, time 30 min, duplicates): BLOD; Analyte Peak Area ([7]; human plasma, 37°C, time 60 min, duplicates): BLOD; Analyte Peak Area ([7]; human plasma, 37°C, time 120 min, duplicates): BLOD |
| CC(=O)Nc1cc(Nc2ncc(NC(=O)c3cc(NC(=O)c4cccc(C(F)(F)F)c4)ccc3C)cn2)ccc1OC(=O)CN1CCN(C)CC1 [Compound 5a] | 100% | 88 µM (≈ 62 µg/mL) | 135 nM | 10 fold | 99% | Analyte Peak Area [7]: BLOD; time for conversion to parent 4 in human plasma ([7]; human, 1 µM): less than 2 h |

— publication PMC10031131, “Design, synthesis and evaluation of a series of potential prodrugs of a Bruton’s tyrosine kinase (BTK) inhibitor” (Frontiers in Pharmacology, 2023)
